Reference: EP3679952A1, “NANOEMULSIONS ENCAPSULATING PRODRUGS” (Université de Strasbourg, priority 2019, dated 2020)

Key:
[1] = DOX encapsulation in nanoemulsions with or without Lipo-HD, absorption spectra after dialysis (Example 1); format: physicochemical; settings: for loading: after dialysis; for retention inside nanoemulsions after dialysis: dialysis in 0.1M NaHCO3 for 12h
Protocol: The compound Lipo-HD was dissolved firstly into the oil Labrafac® at 10 wt%. Then 65 mg of surfactant Solutol was added to 35 mg of above solution. The mixture was homogenized under magnetic stirring at 90°C for 10 min up to complete homogenisation. Finally, nanoemulsions were generated with the addition of ultrapure (Milli-Q) water (230 mg). The size of nanoemulsions could be monitored by the variation of the ratio between oil (labrafac) and surfactant (solutol). For fluorescence studies, 0.5 wt% of a donor dye […] is added respectively to Labrafac® containing or not 10 wt% of Lipo-HD. Then the nanoemulsions were prepared as described above. […] was used for monitoring the encapsulation, release and stability of the nanoemulsion by looking on the intensity variation between […] and DOX. […] To those solutions, […] of DOX-HCl (30 mM) was added. The mixtures were vortexes for 12 h at 37 °C. The Scheme of synthesis is illustrated in figure 1. The resulting solutions were dialyzed in 500 mL of 0.1M NaHCO3 for 12h. Absorption spectra were recorded on a Cary® spectrophotometer (Varian) according to conventional measurement method.

4T1 = assay: MTS cytotoxicity assay in cell culture; format: cell-based, mouse; settings: 4T1 cells, 48h incubation, prodrugs loaded in nanoemulsion, free drugs without nanoemulsion
Protocol: (§1) The MTS assay is based on the reduction of the MTS tetrazolium compound by viable mammalian cells (here, by tumor cells) to generate a colored formazan dye that is soluble in cell culture media. The formazan dye is quantified by measuring the absorbance at 490-500 nm. […] After 24h, the medium was removed and replaced by drug-containing (LipoHD-DOX nanoemulsion or DOX alone) medium. After 48h, the medium was removed and replaced with MTS-containing medium (0,5 mg/ml). After 4h of incubation, the medium was removed, replaced with 100µl of DMSO (agitation, 20 min) and the absorbance was read at 570 nm.

MDA-MB-231 = assay: MTS cytotoxicity assay in cell culture; format: cell-based, Human; settings: MDA-MB-231 cells, 48h incubation, prodrugs loaded in nanoemulsion, free drugs without nanoemulsion
Protocol: as §1

Jimt1 = assay: MTS cytotoxicity assay in cell culture; format: cell-based, Human; settings: Jimt1 cells, 48h incubation, prodrugs loaded in nanoemulsion, free drugs without nanoemulsion
Protocol: as §1

[2] = Size distribution of nanoemulsions by dynamic light scattering; format: physicochemical; settings: nanoemulsion with the compound at 5 wt% in Labrafac, Cremophore, reacted with doxorubicin (Example 2)
Protocol: The compound Lipo-HD was dissolved firstly into the oil Labrafac® at 10 wt%. Then 65 mg of surfactant Solutol was added to 35 mg of above solution. The mixture was homogenized under magnetic stirring at 90°C for 10 min up to complete homogenisation. Finally, nanoemulsions were generated with the addition of ultrapure (Milli-Q) water (230 mg). The size of nanoemulsions could be monitored by the variation of the ratio between oil (labrafac) and surfactant (solutol).
Size distributions were determined by dynamic light scattering using Zetasizer Nano ZSP (Malvern Instruments S.A).
(§2) Corresponding compounds of formula II'a were respectively dissolved first into the oil Labrafac® at 5 wt%. Then 45 mg of surfactant Cremophore ® was added to 55 mg of above solution. The mixture was homogenized under magnetic stirring at 40°C for 10 min up to complete homogenisation. Finally, nanoemulsions were generated with the addition of phosphate buffered saline (230 mg).

[3] = Doxorubicin loading of nanoemulsions containing compounds of formula II'a (Example 2); format: physicochemical; settings: nanoemulsion with the compound at 5 wt% in Labrafac, Cremophore, reacted with doxorubicin at pH 4, 37°C, 24h, then dialysed 24h and centrifuged
Protocol: as §2
300 µl of the obtained nanoemulsion encapsulating the compound of formula II'a were diluted into 300 µl of 20 mM acetate buffer (pH=4), and then 50 µl of 30 mM solution of doxorubicin in DMSO was added. The mixture was reacted under shaking at 37°C during 24h.
After the reaction, the sample was dialysed for 24h at NaHCO3 buffer (0.1 M) at pH8 and then centrifugation at 6000 rpm for 1 minute was carried out.

[4] = Storage stability of nanoemulsions (absorption spectra, precipitation) after 4 days; format: physicochemical; settings: for change of absorption spectra on storage: nanoemulsions of the compound reacted with DOX, after 4 days storage at 4°C
Protocol: • Figure 1: Scheme of synthesis of DOX/Lipo-HD conjugate in situ inside lipid nanoemulsions. • Figure 2A: Absorption spectra of 100 timed diluted nanoemulsions containing reference dye F888 and with Lipo-HD alone (F888-Lipo-HD), of 100 timed diluted nanoemulsions with Lipo-HD after incubation with DOX (F888-Lipo-HD-DOX), and of nanoemulsions encapsulating F888-Lipo-HD-DOX and further dialysis (F888-Lipo-HD-DOX after dialysis). Reference dye F888 was encapsulated at 0.5 wt% of with respect to Labrafac oil. Lipo-HD was encapsulated at 10 wt%. • Figure 2B: Absorption spectra of 100 timed diluted nanoemulsions containing F888 but without Lipo-HD (F888), of 100 times diluted nanoemulsions containing F888 after incubation with DOX (F888-DOX), and of nanoemulsion encapsulating F888-DOX further dialysis (F888-DOX after dialysis). […] Reference dye F888 was encapsulated at 0.5 wt%. • Figure 4A: Fluorescence spectra of nanoemulsions encapsulating 0.5 wt% of donor dye F888 with 10 wt% of Lipo-HD (F888-Lipo-HD) or without Lipo-HD (F888). • Figure 4B: Fluorescence spectra of nanoemulsions with Lipo-HD incubated with DOX and then dialyzed (F888-Lipo-HD-DOX), of nanoemulsions without Lipo-HD incubated with DOX and then dialyzed (F888-DOX), and of nanoemulsions containing F888 alone (F888). […] All fluorescence spectra were corrected from the blank. • Figures 5A, 5B: Fluorescence spectra of F888-Lipo-HD-DOX nanoemulsions (5000-fold dilution) in the presence of blank nanoemulsions (50-fold dilution) at pH 7.4 (Fig. 5A) and 4.0 (Fig. 5B). […] All fluorescence spectra were corrected from the blank. • Figures 5C: Fluorescence intensity ratio donor/acceptor as a function of incubation time for pH 7.4 and 4.0 (Fig. 5C). • Figure 6A, 6B: Absorption spectra of four nanoemulsions containing respectively a compound of formula I'a, where R1 and R2 are butyl (C4)-alkyl chains, or octyl (C8)-alkyl chains, or octadecyl (C18)-alkyl chains, or R1 is a single C18 alkyl-chain, while R2 = H (C18 mono chain). […]

PDI [2]	Size (nm) [2]	Encapsulation loading (%) [3]	loading efficiency (%) [3]	precipitation of nanoemulsion ([4]; nanoemulsion of the compound reacted with DOX, 4 days after preparation)	change of absorption spectra on storage [4]	loading ([1]; DOX loading with respect to labrafac oil, nanoemulsion with 10 wt% Lipo-HD, calculated with extinction coefficient of DOX 12 200 M^-1cm^-1)	SMILES	loading ([1]; DOX loading of nanoemulsion without Lipo-HD)	retention inside nanoemulsions after dialysis [1]	Cytotoxicity (4T1)	Cytotoxicity (MDA-MB-231)	Cytotoxicity (Jimt1)	solubility in oil ([1]; conjugate formed in situ in nanoemulsion, compared with DOX alone)
–	–	–	–	–	–	–	COc1cccc2c1C(=O)c1c(O)c3c(c(O)c1C2=O)C[C@@](O)(C(=O)CO)C[C@@H]3O[C@H]1C[C@H](N)[C@H](O)[C@H](C)O1 [DOX, doxorubicin, reference compound]	< 0.06%	leaked out	dose-dependent cytotoxicity	dose-dependent cytotoxicity	dose-dependent cytotoxicity	–
–	–	–	–	–	–	–	CCCCCCCCCCCCCCCCCCN(CCCCCCCCCCCCCCCCCC)C(=O)CCC(=O)NN=C(CO)C1(O)Cc2c(O)c3c(c(O)c2C(OC2CC(N)C(O)C(C)O2)C1)C(=O)c1c(OC)cccc1C3=O (stereo not shown) [Lipo-HD-DOX]	–	remain inside nanoemulsions after dialysis	similarly	higher toxicity	higher toxicity	much better soluble in oil than DOX alone
–	–	–	–	–	–	–	CCCCCCCCCCCCCCCCCCN(CCCCCCCCCCCCCCCCCC)C(=O)CCC(=O)Nc1ccn([C@@H]2O[C@H](CO)[C@@H](O)C2(F)F)c(=O)n1 [Lipo-N-Gem]	–	–	dose-dependent	slightly more efficient	slightly more efficient	–
0.132	104nm	0.68%	21%	signs of precipitation	strong loss of absorbance	–	CCCCCCCCCCCCCCCCCCNC(=O)CCC(=O)NN [Lipo-HD-C18]	–	–	–	–	–	–
0.118	99nm	1.58%	55%	–	minimal changes	1.6 wt%	CCCCCCCCCCCCCCCCCCN(CCCCCCCCCCCCCCCCCC)C(=O)CCC(=O)NN [Lipo-HD, 3-(hydrazinecarbonyl)-N,N-dioctadecylpropanamide]	–	–	–	–	–	–
–	–	–	–	–	–	–	CC(=O)O[C@H]1C(=O)[C@@]2(C)[C@H]([C@H](OC(=O)c3ccccc3)[C@]3(O)C[C@H](OC(=O)[C@H](O)[C@@H](NC(=O)c4ccccc4)c4ccccc4)C(C)=C1C3(C)C)[C@]1(OC(C)=O)CO[C@@H]1C[C@@H]2O [paclitacel, paclitaxel, reference compound]	–	–	slightly higher	slightly higher	slightly higher	–
